IC50 data for 28 compounds are collected here from EP2951180B1, “2,6,7,8 SUBSTITUTED PURINES AS HDM2 INHIBITORS” (Merck Sharp & Dohme Corp., priority 2013, dated 2014).

In the first experiment the target is T1, HDM2 (Homo sapiens, UniProt Q00987).
T1 construct: Thioredoxin (N); made in house; host or cells: E. coli strain BL21(DE3)Rosetta
T1 sequence (Q00987 17-125): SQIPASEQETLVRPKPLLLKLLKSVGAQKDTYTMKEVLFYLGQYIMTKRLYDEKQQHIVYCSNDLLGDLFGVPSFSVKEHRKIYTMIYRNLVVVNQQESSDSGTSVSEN
In words: FRET assay (HDM2 inhibition; method not described in this part). Format: binding. The settings on record: Table 1.
In turn, `C=C(C)c1cc(C)nc(-c2nc3nc(C(=O)O)nc(N[C@H](C)C4CCC4)c3n2Cc2ccc(C(F)(F)F)cc2)c1` [Example 1.5, (R)-6-((1-cyclobutylethyl)amino)-8-(6-methyl-4-(prop-1-en-2-yl)pyridin-2-yl)-7-(4-(trifluoromethyl)benzyl)-7H-purine-2-carboxylic acid] gave an IC50 of 50.2 nM.

Take `C[C@@H](Nc1nc(C(=O)O)nc2nc(-c3cc(C(O)c4ccccc4)ccn3)n(Cc3ccc(C(F)(F)F)cc3)c12)C1CCC1` (stereo partly drawn) [Example 1.8, 6-(((R)-1-cyclobutylethyl)amino)-8-(4-(hydroxy(phenyl)methyl)pyridin-2-yl)-7-(4-(trifluoromethyl)benzyl)-7H-purine-2-carboxylic acid]: the IC50 came to 20.1 nM.

Consider `C[C@@H](Nc1nc(C(=O)O)nc2nc(-c3ccc(Cl)c(C(F)(F)F)c3)n(Cc3ccc(C(F)(F)F)cc3)c12)C1CCC1` [Example 1.115, 8-[4-chloro-3-(trifluoromethyl)phenyl]-6-{[(1R)-1-cyclobutylethyl]amino}-7-[4-(trifluoromethyl)benzyl]-7H-purine-2-carboxylic acid], for which the IC50 was 17.3 nM.

The compound `CC(C)c1ccc(OC(F)(F)F)c(-c2nc3nc(C(=O)O)nc(N[C@H](C)C4CCC4)c3n2Cc2ccc(OC(F)(F)F)c(F)c2)c1` [Example 1.83, 6-{[(1R)-1-cyclobutylethyl]amino}-7-[3-fluoro-4-(trifluoromethoxy)benzyl]-8-[5-(1-methylethyl)-2-(trifluoromethoxy)phenyl]-7H-purine-2-carboxylic acid] registered an IC50 of 23.2 nM.

Consider `COc1ccc(C(F)(F)F)cc1-c1nc2nc(C(=O)O)nc(N[C@H](C)C3CCC3)c2n1Cc1ccc(C(F)(F)F)cc1` [Example 1.35, 6-{[(1R)-1-cyclobutylethyl]amino}-8-[2-methoxy-5-(trifluoromethyl)phenyl]-7-[4-(trifluoromethyl)benzyl] - 7H-purine-2-carboxylic acid], for which the IC50 worked out at 27.8 nM.

Compound `C[C@@H](Nc1nc(C(=O)O)nc2nc(-c3cc(C4CCC4)ccn3)n(Cc3ccc(C(F)(F)F)c(F)c3)c12)C1CCC1` [Example 1.78, 6-{[(1R)-1-cyclobutylethyl]amino}-8-(4-cyclobutylpyridin-2-yl)-7-[3-fluoro-4-(trifluoromethyl)benzyl]-7H-purine-2-carboxylic acid] showed an IC50 of 9.25 nM.

For the compound `Cc1ccc(Cl)cc1-c1nc2nc(C(=O)O)nc(N[C@H](C)C3CCC3)c2n1Cc1ccc(C(F)(F)F)cc1` [Example 1.132, 8-(5-chloro-2-methylphenyl)-6-{[(1R)-1-cyclobutylethyl]amino}-7-[4-(trifluoromethyl)benzyl]-7H-purine-2-carboxylic acid], half-maximal inhibition (IC50) was put at 524 nM.

Compound `C[C@@H](Nc1nc(C(=O)O)nc2nc(-c3cc(N(C)C)ccn3)n(Cc3ccc(C(F)(F)F)cc3)c12)C1CCC1` [Example 1.47, 6-{[(1R)-1-cyclobutylethyl]amino}-8-[4-(dimethylamino)pyridin-2-yl]-7-[4-(trifluoromethyl)benzyl]-7H-purine-2-carboxylic acid] gave an IC50 of 16.4 nM.

In turn, `CC(C)c1ccnc(-c2nc3nc(C(=O)O)nc(N[C@H](C)C4CCC4)c3n2Cc2ccc(OC(F)(F)F)c(F)c2)c1` [Example 1.71, 6-{[(1R)-1-cyclobutylethyl]amino}-7-[3-fluoro-4-(trifluoromethoxy)benzyl]-8-[4-(1-methylethyl)pyridin-2-yl]-7H-purine-2-carboxylic acid] had an IC50 of 9.51 nM. This IC50 is about 1.7-fold lower than that of the compound before.

Compound `Cc1c(-c2nc3nc(C(=O)O)nc(N[C@H](C)C4CCC4)c3n2Cc2ccc(C(F)(F)F)cc2)cnn1C` [Example 1.95, 6-{[(1R)-1-cyclobutylethyl]amino}-8-(1,5-dimethyl-1H-pyrazol-4-yl)-7-[4-(trifluoromethyl)benzyl]-7H-purine-2-carboxylic acid] returned an IC50 of 138 nM.

Compound `C[C@@H](Nc1nc(C(=O)O)nc2nc(-c3cc(OC4CCCCC4)ccn3)n(Cc3ccc(C(F)(F)F)cc3)c12)C1CCC1` [Example 1.58, 6-{[(1R)-1-cyclobutylethyl]amino}-8-[4-(cyclohexyloxy)pyridin-2-yl]-7-[4-(trifluoromethyl)benzyl]-7H-purine-2-carboxylic acid] yielded an IC50 of 16.9 nM.

The experiment is the same for the next values; noted with them: Table 2.
For `C[C@@H](Nc1nc(C(=O)O)nc2nc(-c3cccc(C(C)(C)C)c3)n(Cc3ccc(C(F)(F)F)cc3)c12)C1CCC1` [Example 2.25, 8-(3-tert-butylphenyl)-6-{[(1R)-1-cyclobutylethyl]amino}-7-[4-(trifluoromethyl)benzyl]-7H-purine-2-carboxylic acid], inhibition was half-maximal at 59.1 nM (IC50). This lies in the double-digit nanomolar range.

Take `Cc1cccc(-c2nc3nc(C(=O)O)nc(N[C@H](C)C4CC4)c3n2Cc2ccc(C(F)(F)F)cc2)c1F` [Example 2.65, 6-{[(1R)-1-cyclopropylethyl]amino}-8-(2-fluoro-3-methylphenyl)-7-[4-(trifluoromethyl)benzyl]-7H-purine-2-carboxylic acid]: the IC50 is 182 nM.

`C[C@@H](Nc1nc(C(=O)O)nc2nc(-c3ccc(C(C)(C)C)cc3)n(Cc3ccc(C(F)(F)F)cc3)c12)C1CC1` [Example 2.32, 8-(4-tert-butylphenyl)-6-{[(1R)-1-cyclopropylethyl]amino}-7-[4-(trifluoromethyl)benzyl]-7H-purine-2-carboxylic acid] displayed a half-inhibitory concentration (IC50) of 1950 nM.

With `Cc1ccccc1-c1nc2nc(C(=O)O)nc(N[C@H](C)C3CC3)c2n1Cc1ccc(C(F)(F)F)cc1` [Example 2.30, 6-{[(1R)-1-cyclopropylethyl]amino}-8-(2-methylphenyl)-7-[4-(trifluoromethyl)benzyl]-7H-purine-2-carboxylic acid], 140 nM corresponded to half-maximal inhibition (IC50).

Turning to `COc1ccc(-c2nc3nc(C(=O)O)nc(N[C@H](C)C4CC4)c3n2Cc2ccc(C(F)(F)F)cc2)cc1` [Example 2.21, 6-{[(1R)-1-cyclopropylethyl]amino}-8-(4-methoxyphenyl)-7-[4-(trifluoromethyl)benzyl]-7H-purine-2-carboxylic acid], the IC50 is 253 nM. This IC50 lies about 1.8-fold higher than the previous one.

`Cc1cc(-c2nc3nc(C(=O)O)nc(N[C@H](C)C4CC4)c3n2Cc2ccc(Cl)cc2)ccc1F` [Example 2.13, 7-(4-chlorobenzyl)-6-{[(1R)-1-cyclopropylethyl]amino}-8-(4-fluoro-3-methylphenyl)-7H-purine-2-carboxylic acid] gave an IC50 of 40.4 nM.

Turning to `CC(C)c1cccc(-c2nc3nc(C(=O)O)nc(N[C@H](C)C4CCC4)c3n2Cc2ccc(C(F)(F)F)cc2)c1` [Example 2.24, 6-{[(1R)-1-cyclobutylethyl]amino}-8-[3-(1-methylethyl)phenyl]-7-[4-(trifluoromethyl)benzyl]-7H-purine-2-carboxylic acid], the IC50 came to 14.7 nM.

Regarding `Cc1ccc(-c2nc3nc(C(=O)O)nc(N[C@H](C)C4CC4)c3n2Cc2ccc(C(F)(F)F)cc2)cn1` [Example 2.36, 6-{[(1R)-1-cyclopropylethyl]amino}-8-(6-methylpyridin-3-yl)-7-[4-(trifluoromethyl)benzyl]-7H-purine-2-carboxylic acid], it took 1300 nM to reach half-maximal inhibition (IC50).

As to `COc1ncc(-c2nc3nc(C(=O)O)nc(N[C@H](C)C4CC4)c3n2Cc2ccc(C(F)(F)F)cc2)cc1F` [Example 2.49, 6-{[(1R)-1-cyclopropylethyl]amino}-8-(5-fluoro-6-methoxypyridin-3-yl)-7-[4-(trifluoromethyl)benzyl]-7H-purine-2-carboxylic acid], the IC50 was 310 nM.

`COc1ccc(-c2nc3nc(C(=O)O)nc(N[C@H](C)C4CC4)c3n2Cc2ccc(C(F)(F)F)cc2)cn1` [Example 2.48, 6-{[(1R)-1-cyclopropylethyl]amino}-8-(6-methoxypyridin-3-yl)-7-[4-(trifluoromethyl)benzyl]-7H-purine-2-carboxylic acid] displayed a concentration for half-maximal inhibition (IC50) of 680 nM.

Consider `C[C@@H](Nc1nc(C(=O)O)nc2nc(-c3cccc(N(C)C)c3)n(Cc3ccc(C(F)(F)F)cc3)c12)C1CCC1` [Example 2.37, 6-{[(1R)-1-cyclobutylethyl]amino}-8-[3-(dimethylamino)phenyl]-7-[4-(trifluoromethyl)benzyl]-7H-purine-2-carboxylic acid], for which half-maximal inhibition (IC50) required 6.6 nM.

In turn, `Cc1cc(C)cc(-c2nc3nc(C(=O)O)nc(N[C@H](C)C4CC4)c3n2Cc2ccc(C(F)(F)F)cc2)c1` [Example 2.50, 6-{[(1R)-1-cyclopropylethyl]amino}-8-(3,5-dimethylphenyl)-7-[4-(trifluoromethyl)benzyl]-7H-purine-2-carboxylic acid] had a 50% inhibitory concentration (IC50) of 120 nM.

`C[C@@H](Nc1nc(C(=O)O)nc2nc(-c3cccc(OC(F)(F)F)c3)n(Cc3ccc(C(F)(F)F)cc3)c12)C1CC1` [Example 2.26, 6-{[(1R)-1-cyclopropylethyl]amino}-8-[3-(trifluoromethoxy)phenyl]-7-[4-(trifluoromethyl)benzyl]-7H-purine-2-carboxylic acid] returned an IC50 of 550 nM.

In turn, `C[C@@H](Nc1nc(C(=O)O)nc2nc(Cc3ccccc3)n(Cc3ccc(Cl)cc3)c12)C1CC1` [Example 2.43, 8-benzyl-7-(4-chlorobenzyl)-6-{ [(1R)-1-cyclopropylethyl]amino}-7H-purine-2-carboxylic acid] yielded an IC50 of 28.1 nM.

Still in this experiment, the particulars now being: Table 3.
As to `C[C@@H](Nc1nc(C(=O)O)nc2nc(-c3nccs3)n(Cc3ccc(C(F)(F)F)cc3)c12)C1CCC1` [Example 3.9, 6-{[(1R)-1-cyclobutylethyl]amino}-8-(1,3-thiazol-2-yl)-7-[4-(trifluoromethyl)benzyl] -7H-purine-2-carboxylic acid], inhibition was half-maximal at 7.86 nM (IC50).

The experiment is the same for the next values; noted with them: Table 4.
Compound `Cc1ccc(C)c(-c2nc3nc(C(=O)O)nc(N[C@H](C)C4CCC4)c3n2Cc2ccc(Cl)cc2)c1` [Example 4.2, (R)-7-(4-chlorobenzyl)-6-((1-cyclobutylethyl)amino)-8-(2,5-dimethylphenyl)-7H-purine-2-carboxylic acid] displayed a half-inhibitory concentration (IC50) of 40.4 nM. That is a double-digit nanomolar value.

Staying with this experiment, now noted: Table 5.
`Cc1cccc(-c2nc3nc(C(=O)O)nc(N[C@@H](C)C4CC4)c3n2C(C)c2ccc(Cl)cc2)c1` (stereo partly drawn) [Example 5.3, 7-(1-(4-chlorophenyl)ethyl)-6-((S)-1-cyclopropylethylamino)-8-(3-methylphenyl)-7H-purine-2-carboxylic acid]: half-maximal inhibition (IC50) was put at 601 nM.
